Measurements taken from patent US12568972B2, “Pyridazinol compounds and derivatives, preparation methods, herbicidal compositions and applications thereof” (Qingdao Kingagroot Chemical Compound Co., Ltd., priority 2018, dated 2026).

Columns and labels:
Assay in all cases: Post-emergence test, weed control effect
Type in all cases: in vivo
Conditions in all cases: after 3 weeks
[1] = system: Amaranthus retroflexus
Summary of the method: (§1)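 Seeds are sown in soil pots and raised in the greenhouse until the 2-3 leaf stage. Plants are then sprayed with compound dissolved in acetone with Tween-80, diluted in water and supplemented with 80% vegetable oil methyl ester synergist at 1500 g/ha, and fresh weight inhibition is rated 0-10 three weeks later.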

[2] = system: Chenopodiaceae
Summary of the method: as §1

[3] = system: Rorippa indica
Summary of the method: as §1

[4] = system: Veronica polita
Summary of the method: as §1

Row | Compound | weed control effect, Amaranthus retroflexus (activity level) ([1]; Dose 3000 g/ha) | weed control effect, Chenopodiaceae (activity level) ([2]; Dose 3000 g/ha) | weed control effect, Rorippa indica (activity level) ([3]; Dose 3000 g/ha) | weed control effect, Veronica polita (activity level) ([4]; Dose 3000 g/ha) | weed control effect (activity level), Amaranthus retroflexus ([1]; Dose 3000 g/ha) | weed control effect (activity level), Chenopodiaceae ([2]; Dose 3000 g/ha) | weed control effect (activity level), Rorippa indica ([3]; Dose 3000 g/ha) | weed control effect (activity level), Veronica polita ([4]; Dose 3000 g/ha) | also measured
1 | CCCC/C(C)=N\Oc1cc(C(F)(F)F)nnc1-c1ccc(S(C)(=O)=O)cc1 [Compound 1-175] | 10 | 10 | 10 | 10 | – | – | – | – | –
2 | Oc1cc(C(F)(F)F)nnc1-c1cc(Cl)cnc1Cl [Compound 992] | – | – | – | – | 10 | 10 | 10 | 10 | –
3 | CC(C)(C)SC(=O)Oc1cc(C(F)(F)F)nnc1-c1cc(Cl)ccc1Cl [Compound 1-47] | 10 | 10 | 10 | 10 | – | – | – | – | –
4 | Oc1cc(CF)nnc1-c1cccnc1F [Compound 1076] | – | – | – | – | 10 | 10 | 10 | 10 | –
5 | COc1cc(Cl)c(COc2cc(C(F)(F)F)nnc2-c2ccc(F)cc2)cc1Cl [Compound 1-211] | 10 | 10 | 10 | 10 | – | – | – | – | –
6 | O=C(Oc1cc(C(F)(F)F)nnc1-c1ccc(Cl)c(Cl)c1)Sc1ccccc1 [Compound 1-102] | 10 | 10 | 10 | 10 | – | – | – | – | –
7 | O=C(Oc1cc(C(F)(F)F)nnc1-c1ccc(F)c(F)c1)c1ccc(Cl)nc1 [Compound 1-110] | 10 | 10 | 10 | 10 | – | – | – | – | –
8 | CS(=O)(=O)c1ccc(S(=O)(=O)Oc2cc(C(F)(F)F)nnc2-c2ccc(F)cc2)cc1 [Compound 1-137] | 10 | 10 | 10 | 10 | – | – | – | – | –
9 | Oc1cc(C(F)(F)F)nnc1-c1ccc2c(c1)OC(F)(F)O2 [Compound 1286] | – | – | – | – | 10 | 10 | 10 | 10 | –
10 | Cc1cc(C(=O)Oc2cc(C(F)(F)F)nnc2-c2ccc(F)c(F)c2)no1 [Compound 1-107] | 10 | 10 | 10 | 10 | – | – | – | – | –
11 | Oc1cc(C(F)(F)F)nnc1-c1cnc(F)cc1Cl [Compound 1001] | – | – | – | – | 10 | 10 | 10 | 10 | –
12 | Oc1cc(C(F)(F)F)nnc1-c1cnc(Cl)cc1F [Compound 1007] | – | – | – | – | 10 | 10 | 10 | 10 | –
13 | Oc1cc(C(F)(F)F)nnc1-c1c(F)cccc1F [Compound 36] | – | – | – | – | – | – | – | – | weed control effect (activity level), Amaranthus retroflexus ([1]; dose 1000 g/ha): 10; weed control effect (activity level), Chenopodiaceae ([2]; dose 1000 g/ha): 10; weed control effect (activity level), Rorippa indica ([3]; dose 1000 g/ha): 10; weed control effect (activity level), Veronica polita ([4]; dose 1000 g/ha): 10
14 | CCC(=O)Oc1cc(C(F)(F)F)nnc1-c1ccc(F)c(F)c1 [Compound 1-3] | 10 | 10 | 10 | 10 | – | – | – | – | –
15 | Oc1cc(C(F)(F)F)nnc1-c1cncc(Cl)c1Cl [Compound 996] | – | – | – | – | 10 | 10 | 10 | 10 | –
16 | Cc1cc(-c2nnc(C(F)(F)F)cc2O)nn1C [Compound 540] | – | – | – | – | 10 | 10 | 10 | 10 | –
17 | Oc1cc(C(F)(F)F)nnc1-c1cccc(Cl)c1 [Compound 27] | – | – | – | – | – | – | – | – | weed control effect (activity level), Amaranthus retroflexus ([1]; dose 1000 g/ha): 10; weed control effect (activity level), Chenopodiaceae ([2]; dose 1000 g/ha): 10; weed control effect (activity level), Rorippa indica ([3]; dose 1000 g/ha): 10; weed control effect (activity level), Veronica polita ([4]; dose 1000 g/ha): 10
18 | O=C(Oc1cc(C(F)(F)F)nnc1-c1ccc(F)cc1)c1ccc2ccccc2c1 [Compound 1-114] | 10 | 10 | 10 | 10 | – | – | – | – | –
19 | Oc1cc(C(F)(F)F)nnc1-c1ccc2cc(Cl)ccc2c1 [Compound 371] | – | – | – | – | – | – | – | – | weed control effect (activity level), Amaranthus retroflexus ([1]; dose 2000 g/ha): 10; weed control effect (activity level), Chenopodiaceae ([2]; dose 2000 g/ha): 10; weed control effect (activity level), Rorippa indica ([3]; dose 2000 g/ha): 10; weed control effect (activity level), Veronica polita ([4]; dose 2000 g/ha): 10
20 | CCCCCCCCC(=S)Oc1cc(C(F)(F)F)nnc1-c1ccc(F)cc1 [Compound 1-154] | 10 | 10 | 10 | 10 | – | – | – | – | –
21 | Cc1ccc(-c2nnc(C(F)(F)F)cc2O)cc1 [Compound 4] | – | – | – | – | – | – | – | – | weed control effect (activity level), Amaranthus retroflexus ([1]; dose 2000 g/ha): 10; weed control effect (activity level), Chenopodiaceae ([2]; dose 2000 g/ha): 8 (Level 8: above 80% growth inhibition rate); weed control effect (activity level), Rorippa indica ([3]; dose 2000 g/ha): 10; weed control effect (activity level), Veronica polita ([4]; dose 2000 g/ha): 10
22 | CCn1nccc1-c1nnc(C(F)(F)F)cc1O [Compound 826] | – | – | – | – | 10 | 10 | 10 | 10 | –
23 | Oc1cc(C(F)(F)F)nnc1-c1ccc2cccnc2c1 [Compound 723] | – | – | – | – | 10 | 10 | 10 | 10 | –
24 | Cc1ccc(Cl)c(-c2nnc(C(F)(F)F)cc2O)c1F [Compound 82] | – | – | – | – | – | – | – | – | weed control effect (activity level), Amaranthus retroflexus ([1]; dose 1000 g/ha): 10; weed control effect (activity level), Chenopodiaceae ([2]; dose 1000 g/ha): 10; weed control effect (activity level), Rorippa indica ([3]; dose 1000 g/ha): 10; weed control effect (activity level), Veronica polita ([4]; dose 1000 g/ha): 10
25 | O=C(Oc1cc(C(F)(F)F)nnc1-c1ccc(C(F)(F)F)cc1)c1cccc2c1OCO2 [Compound 1-118] | 10 | 10 | 10 | 10 | – | – | – | – | –
26 | Oc1cc(C(F)(F)F)nnc1-c1cnccc1Cl [Compound 204] | – | – | – | – | – | – | – | – | weed control effect (activity level), Amaranthus retroflexus ([1]; dose 2000 g/ha): 10; weed control effect (activity level), Chenopodiaceae ([2]; dose 2000 g/ha): 10; weed control effect (activity level), Rorippa indica ([3]; dose 2000 g/ha): 10; weed control effect (activity level), Veronica polita ([4]; dose 2000 g/ha): 10
27 | Oc1cc(C(F)(F)F)nnc1-c1cnccc1Br [Compound 968] | – | – | – | – | 10 | 10 | 10 | 10 | –
